{"source": "patent US20040038419A1", "about": "“Assays and kits for detecting the presence of nitriles and/or cyanide” (priority 2002, published 2004)", "format_in_all_cases": "biochemical", "conditions_in_all_cases": "lyophilized nitrilase lysate added; OPA or NDA as fluorogenic reagent", "key": {"[1]": {"tested_on": "nitrilase having SEQ ID NO: 190", "assay": "OPA/NDA fluorescence assay of nitrile hydrolysis by lyophilized nitrilase lysate", "excerpt": "FIG. 5A illustrates detection curves for assays of pivaldehyde aminonitrile (PAH), PAH combined with a lyophilized nitrilase lysate having a SEQ ID NO: 190 (“PAH+SEQ ID NO: 190”), acetophenone aminonitrile (APA), and APA combined with a lyophilized nitrilase lysate having a SEQ ID NO: 190 (“APA+SEQ ID NO: 190”), all using OPA as the fluorogenic reagent.\nFIG. 5B illustrates detection curves for PAH, PAH combined with a lyophilized nitrilase lysate having a SEQ ID NO: 190 (“PAH+SEQ ID NO: 190”), APA, and APA combined with a lyophilized nitrilase lysate having a SEQ ID NO: 190 (“APA+SEQ ID NO: 190”), all using naphthalene dicarboxyaldehyde (NDA) as the fluorogenic reagent.\n(§1) In assays using certain substrates, naphthalene dicarboxaldehyde (NDA) was substituted for OPA as the fluorescing agent. Calibration curves for APA, PAH, HPA and DMB, with either OPA or NDA were constructed (see FIGS. 5A, 5B, 5C and 5D). To determine sensitivity and background fluorescence, lyophilized nitrilase lysates with SEQ ID NOS: 190, 56, and 60 were added, respectively."}, "[2]": {"tested_on": "nitrilase of SEQ ID NO: 56", "assay": "OPA/NDA fluorescence assay of nitrile hydrolysis by nitrilase", "excerpt": "(§2) FIG. 5C illustrates detection curves for hydroxylpivaldehyde aminonitrile (HPA), HPA combined with a nitrilase of SEQ ID NO: 56(“HPA+SEQ ID NO: 56”), dimethylbutanal aminonitrile (DMB), and DMB combined with a nitrilase of SEQ ID NO: 60 (“DMB+SEQ ID NO: 60”), all using OPA as the fluorogenic reagent.\n(§3) FIG. 5D illustrates detection curves for HPA, HPA combined with a nitrilase of SEQ ID NO: 56 (“HPA+SEQ ID NO: 56”), DMB, and DMB combined with a nitrilase of SEQ ID NO: 60 (“DMB+SEQ ID NO: 60”), all using NDA as the fluorogenic reagent.\nas §1"}, "[3]": {"tested_on": "nitrilase of SEQ ID NO: 60", "assay": "OPA/NDA fluorescence assay of nitrile hydrolysis by nitrilase", "excerpt": "as §2, §3, §1"}}}
{"compound": "CC(N)(C#N)c1ccccc1", "note": "(stereo not drawn) [APA, acetophenone aminonitrile]", "values": [{"measurement": "hydrolysis of the enzyme substrate", "setting": "[1]", "value": "Hydrolysis was detected"}]}
{"compound": "CC(C)(CO)C(N)C#N", "note": "(stereo not drawn) [HPA, hydroxylpivaldehyde aminonitrile]", "values": [{"measurement": "hydrolysis of the enzyme substrate", "setting": "[2]", "value": "Hydrolysis was detected"}]}
{"compound": "dimethylbutanal aminonitrile [DMB]", "values": [{"measurement": "hydrolysis of the enzyme substrate", "setting": "[3]", "value": "Hydrolysis was detected"}]}
